The source of these data is patent US11485747B2, “Diphenylmethane protective agent” (priority 2016, dated 2022).

SMILES strings stand for the structures. Values after ≈ are worked out from the molar mass of the structure shown. Where a SMILES comes first, the peptide text is derived from it.

The nature of this data set: physchem. The class given is physicochemical. As for the experimental part: Peptide used as model: H-Gly-Gly-Gly-NH2
H-Gly-Gly-Gly-NH2 and H-Gly-Gly-Gly-NH-(TIPS2-Dpm) were synthesized, CPME (cyclopentyl methyl ether) was saturated with each of the compounds at 25° C., and the solubility was measured.

What is called solubility is the dissolved amount per volume that the medium holds. Low values mean little dissolved substance, high ones much dissolved substance. Turning to `NCC(=O)NCC(=O)NCC(N)=O` [H-Gly-Gly-Gly-NH2, reference compound] (H-Gly-Gly-Gly-NH2), the concentration in solution (solubility) came to 0.039 mM (≈ 0.00734 mg/mL).

Take `CC(C)[Si](OCCCCCCCCCCCOc1ccc(C(NC(=O)CNC(=O)CNC(=O)CN)c2ccc(OCCCCCCCCCCCO[Si](C(C)C)(C(C)C)C(C)C)cc2)cc1)(C(C)C)C(C)C` [H-Gly-Gly-Gly-NH-(TIPS2-Dpm)]: the increase in solubility is given as ≥ 10,000 fold and the solubility amounted to 426 mM (≈ 443 mg/mL).
